For experiment [1], the system named is neurons from hippocampi of E18 rat embryos. Kind of experiment: Neurite growth length (% NTL) in cultured E18 rat hippocampal neurons, 9-point dose response, 48 hours. It counts as cell-based. As to conditions: Rattus norvegicus, Neuron, 48 h; for activity at 0.078 µM: 78 nM; for activity at 0.156 µM: 156 nM; for activity at 0.312 µM: 312 nM; for activity at 0.625 µM: 625 nM. How it is done:
PRE-COATING CULTURE PLATES: On the day before the experiment, 96-well plates were pre-coated by plating 50 μl of Poly-D-lysine solution (PDL, 0.5 mg/mL) in each well. The next morning, the plates were washed four or five times with HBSS or PBS (150 μl/rinse), then left in buffer until cell plating
PREPARING THE CELLS: A timed pregnant rat carrying E18 embryos was euthanized using an IACUC approved method. In a laminar flow hood, the embryos were removed and placed in a petri dish containing Hank's Balanced Salt Solution (HBSS) with 20 mM HEPES, pH 7.3. Pup brains were dissected (see Meberg et al., 2003) and hippocampi were collected in 15 mL a conical tube containing Hibernate E with SM1 (2% v/v).
Dissociation media was prepared by combining 4.5 mL of Hibernate E (without SM1) with 0.5 mL of trypsin and 100 μl of DNAse solution. The medium over the hippocampi was carefully removed and replaced with dissociation solution, then incubated at 37° C. for 15-20 minutes, occasionally swirling the tube.
Using flame polished cotton plugged Pasteur pipettes, the dissociation media was removed, and then 5 mL of Hibernate E containing SM1 were added. The tube was swirled to thoroughly wash the tissue. The tissue was allowed to settle to the bottom of the tube, and the rinse solution was carefully removed. This step was repeated 5 times to dilute out trypsin and DNAse and remove any debris from lysed cells.
The final rinse media was removed from the tube and 1 pipette-full (1-2 mL) of Hibernate E with SM1 was added. Using the flame-polished Pasteur pipette (pre-wetted with rinse media), the tube was triturated until all cells had dissociated and no visible chunks of tissue remained. Fewer than ten triturations were typically performed. The volume was adjusted to 8-12 mL using Hibernate E containing SM1, the well was mixed and cell concentration was determined.
PLATING: The cells were diluted in culture media (NbActiv4 Cell-culture media) to a final concentration of 10,000 cells/mL. The HBSS was aspirated from PDL coated plates, and 150 μL of cell solution was loaded in the middle 48 wells at 1500 cells per well. Water was loaded in the outer wells to decrease evaporation from edge wells. Cells were allowed to adhere for 2 hours in tissue culture incubator prior to treatment.
TREATMENT: Compounds were diluted to various concentrations to provide 9 dose response concentrations of 20 μM, 10 μM, 5, μM, 2.5 μM, 1.25 μM, 0.625 μM, 0.3125 μM, 0.15625 μM, and 0.078125 μM. The plates were cultured for 48 hours, exposed to the compound at the various dose response concentrations.
FIXING THE CULTURES: The culture medium was removed from the plates and immediately replaced with 100-200 μl of warm (37° C.) 4% paraformaldehyde (PFA) solution in phosphate-buffered saline (PBS). The cells were fixed for 15-20 minutes at room temperature, and then rinsed with PBS (200 μl/well×3).
STAINING AND IMAGING: The PBS was removed and replaced with 100 μl of blocking/permeabilization buffer (PBS, 0.2% fish gelatin, 0.03% Triton X-100, 0.02% NaN3), then incubated overnight at 4° C. To this was added 100 μl of primary antibody solution (mouse anti-Beta III tubulin in blocking buffer) and incubate overnight at 4° C. The wells were rinsed with PBS (200 μl×3), which was then removed and replaced with 100 μl of secondary antibody solution (Goat anti-mouse Alexa 488, 10 μg/ml Hoechst 33342, 0.2% fish gelatin, 0.02% azide, in PBS). The plate was shaken gently on a rotating shaker for 2 hours, then rinsed with PBS (200 μl×5).
The plate was imaged using a Cellomics ArrayScan VTI in 2 different channels for nuclear staining (Hoechst) and cell body/neurite staining (βIII-tubulin). Typically, nine fields per well were imaged with a 5× objective and automatically traced by the Neuronal Profiling Bioapplication. To get reproducible results, at least 200-300 valid neurons were measured per condition. […]

Experiment [2] deals with Primary Neurons. Briefly: HCS neurite outgrowth assay (High Content Screening with Primary Neurons). It counts as cell-based. As to conditions: Primary neuron.

For orientation: EC50 means the concentration giving half of the maximal effect. Higher therefore signals a less potent agent.

Some results are limits rather than exact numbers.

On to `COc1ccc(O)c(C(=O)c2ccc(C(=O)N[C@@H]3c4ccccc4C[C@H]3NC(=O)c3ccncc3)cc2)c1F` [Example A14, N-[(1R,2R)-1-[4-(2-fluoro-6-hydroxy-3-methoxybenzoyl)benzamido]-2,3-dihydro-1H-inden-2-yl]pyridine-4-carboxamide], for which, in experiment [1], the activity at 0.078 µM came to 105%, the activity at 0.156 µM is 111%, the activity at 0.312 µM was determined as 118% and the activity at 0.625 µM stood at 119%. Further, in experiment [1], the activity at 1.25 µM came to 127%, the activity at 2.5 µM came to 126%, the activity at 5 µM came out at 140% and the activity at 10 µM stood at 154%. Also, the activity at 20 µM in experiment [1] is 175%. Also, the concentration for a half-maximal effect (EC50) in experiment [2] was > 20 µM.

For the compound `O=C(N[C@@H]1CCC[C@H]1NC(=O)c1ccc(C(=O)c2ccccc2)cc1)c1ccncc1` [Example A15, N-[(1R,2R)-2-(4-benzoylbenzamido)cyclopentyl]pyridine-4-carboxamide], in experiment [1], the activity at 0.078 µM stood at 98.5%, the activity at 0.156 µM came to 106%, the activity at 0.312 µM came to 111% and the activity at 0.625 µM was determined as 114%. For the same compound, in experiment [1], the activity at 1.25 µM is 110%, the activity at 2.5 µM amounted to 107%, the activity at 5 µM was found to be 110% and the activity at 10 µM was determined as 122%. Moreover, in experiment [1], the activity at 20 µM worked out at 136%. The compound further returned a concentration for a half-maximal effect (EC50) in experiment [2] of 7.84 µM.

As for `COc1ccc(OC)c(C(=O)c2ccc(C(=O)N[C@@H]3CCC[C@H]3NC(=O)c3ccncc3)cc2)c1F` [Example A17, N-[(1R,2R)-2-[4-(2-fluoro-3,6-dimethoxybenzoyl)benzamido]cyclopentyl] pyridine-4-carboxamide], in experiment [1], the activity at 0.078 µM worked out at 99.7%, the activity at 0.156 µM is 100%, the activity at 0.312 µM amounted to 104% and the activity at 0.625 µM is 99.8%. In addition, in experiment [1], the activity at 1.25 µM stood at 103%, the activity at 2.5 µM worked out at 113%, the activity at 5 µM is 112% and the activity at 10 µM was determined as 121%. Moreover, the activity at 20 µM in experiment [1] was 119%. Besides, in experiment [2], the EC50 is 1.83 µM.

In the case of `COc1ccc(O)c(C(=O)c2ccc(C(=O)N[C@@H]3CCC[C@H]3NC(=O)c3ccncc3)cc2)c1F` [Example A18, N-[(1R,2R)-2-[4-(2-fluoro-6-hydroxy-3-methoxybenzoyl)benzamido]cyclopentyl] pyridine-4-carboxamide], in experiment [1], the activity at 0.078 µM amounted to 113%, the activity at 0.156 µM came out at 115%, the activity at 0.312 µM was determined as 119% and the activity at 0.625 µM was 120%. Further, in experiment [1], the activity at 1.25 µM is 121%, the activity at 2.5 µM was found to be 133%, the activity at 5 µM came to 130% and the activity at 10 µM was found to be 131%. The activity at 20 µM in experiment [1] was 140%. In experiment [2], this compound yielded an EC50 of 6.61 µM.

For the compound `O=C(N[C@@H]1CCCC[C@H]1NC(=O)c1ccc(C(=O)c2ccccc2)cc1)c1ccncc1` [Example A19, N-[(1R,2R)-2-(4-benzoylbenzamido)cyclohexyl]pyridine-4-carboxamide], in experiment [1], the activity at 0.078 µM was 90.1%, the activity at 0.156 µM was 93.7%, the activity at 0.312 µM was found to be 68.7% and the activity at 0.625 µM is 75%. Besides, in experiment [1], the activity at 1.25 µM was 75.7%, the activity at 2.5 µM was determined as 78.5%, the activity at 5 µM turned out to be 79.4% and the activity at 10 µM was 87.4%. Besides, the activity at 20 µM in experiment [1] stood at 91.2%. The response in experiment [2] was half-maximal at 2.24 µM (EC50).

`COc1ccc(OC)c(C(=O)c2ccc(C(=O)N[C@@H]3CCCC[C@H]3NC(=O)c3ccncc3)cc2)c1F` [Example A21, N-[(1R,2R)-2-[4-(2-fluoro-3,6-dimethoxybenzoyl)benzamido]cyclohexyl] pyridine-4-carboxamide]: in experiment [1], the activity at 0.078 µM came out at 84.7%, the activity at 0.156 µM was found to be 83.3%, the activity at 0.312 µM was 79.8% and the activity at 0.625 µM came to 81.8%. Besides, in experiment [1], the activity at 1.25 µM was determined as 86.8%, the activity at 2.5 µM came to 91.5%, the activity at 5 µM is 102% and the activity at 10 µM stood at 107%. The activity at 20 µM in experiment [1] was 108%. The EC50 in experiment [2] was found to be 2.92 µM.

On to `COc1ccc(O)c(C(=O)c2ccc(C(=O)N[C@@H]3CCCC[C@H]3NC(=O)c3ccncc3)cc2)c1F` [Example A22], for which, in experiment [1], the activity at 0.078 µM amounted to 89.3%, the activity at 0.156 µM turned out to be 91.8%, the activity at 0.312 µM was 92.3% and the activity at 0.625 µM amounted to 86.2%. In experiment [1], the activity at 1.25 µM is 85.5%, the activity at 2.5 µM is 85.5%, the activity at 5 µM was 88.7% and the activity at 10 µM stood at 91.1%. In addition, the activity at 20 µM in experiment [1] was 94.7%. Moreover, in experiment [2], the response was half-maximal at 2.61 µM (EC50).

`O=C(N[C@@H]1CCCCC[C@H]1NC(=O)c1ccc(C(=O)c2ccccc2)cc1)c1ccncc1` [Example A23, N-[(1R,2R)-2-(4-benzoylbenzamido)cycloheptyl]pyridine-4-carboxamide]: in experiment [1], the activity at 0.078 µM was found to be 98.3%, the activity at 0.156 µM turned out to be 102%, the activity at 0.312 µM came to 95.6% and the activity at 0.625 µM stood at 93.6%. In experiment [1], the activity at 1.25 µM came to 97%, the activity at 2.5 µM worked out at 101%, the activity at 5 µM was 105% and the activity at 10 µM is 117%. Moreover, in experiment [1], the activity at 20 µM stood at 144%. The EC50 in experiment [2] was 16.8 µM.

For `COc1ccc(OC)c(C(=O)c2ccc(C(=O)N[C@@H]3CCCCC[C@H]3NC(=O)c3ccncc3)cc2)c1F` [Example A24, N-[(1R,2R)-2-[4-(2-fluoro-3,6-dimethoxybenzoyl)benzamido]cycloheptyl] pyridine-4-carboxamide], in experiment [1], the activity at 0.078 µM worked out at 96.3%, the activity at 0.156 µM was 96.8%, the activity at 0.312 µM worked out at 93.4% and the activity at 0.625 µM was 96.9%. Also, in experiment [1], the activity at 1.25 µM amounted to 91.8%, the activity at 2.5 µM was found to be 101%, the activity at 5 µM was 114% and the activity at 10 µM turned out to be 131%. Also, the activity at 20 µM in experiment [1] is 169%. For the same compound, the EC50 in experiment [2] was found to be 16.1 µM.

For the compound `COc1ccc(O)c(C(=O)c2ccc(C(=O)N[C@@H]3CCCCC[C@H]3NC(=O)c3ccncc3)cc2)c1F` [Example A25, N-[(1R,2R)-2-[4-(2-fluoro-6-hydroxy-3-methoxybenzoyl)benzamido]cycloheptyl] pyridine-4-carboxamide], in experiment [1], the activity at 0.078 µM amounted to 98.9%, the activity at 0.156 µM is 97.5%, the activity at 0.312 µM is 110% and the activity at 0.625 µM came out at 111%. Moreover, in experiment [1], the activity at 1.25 µM is 120%, the activity at 2.5 µM turned out to be 122%, the activity at 5 µM turned out to be 134% and the activity at 10 µM is 146%. Besides, the activity at 20 µM in experiment [1] is 163%. The concentration giving a half-maximal response (EC50) in experiment [2] is > 20 µM.

These data come from patent publication US11926613B2, “Kinase inhibitors for the treatment of central and peripheral nervous system disorders” (UNIVERSITY OF MIAMI, priority 2017, dated 2024).
